Results taken from patent publication US8921328B2, “E-selectin antagonists” (GlycoMimetics, Inc., priority 2010, dated 2014).

What follows are compounds tested against T1, E-selectin/IgG construct (Homo sapiens, UniProt P16581) (assay: BIAcore SPR ranking procedure at a single concentration (relative binding affinity)). Settings: SPR signal at single concentration 0.05 μM divided by molecular weight, normalized to internal standard; KD larger than for reference compound 64, however below 135 nM; read-out: KD values (relative* binding affinities, ranking procedure).
T1 construct: fused on or other part: IgG Fc part (human, since it is captured by goat anti-human Fc antibody), fused on as a capture handle
T1 sequence (P16581 22-175 limits assumed): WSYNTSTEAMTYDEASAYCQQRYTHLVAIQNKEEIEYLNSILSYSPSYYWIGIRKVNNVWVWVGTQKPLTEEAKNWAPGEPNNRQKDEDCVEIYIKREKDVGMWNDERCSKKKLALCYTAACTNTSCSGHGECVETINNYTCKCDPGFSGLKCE
Method: (§1) The biological evaluation of the E-selectin antagonists was performed by surface plasmon resonance (SPR). For this purpose, an E-selectin/IgG construct was captured onto a BIAcore chip surface bearing covalently linked goat anti-human Fc specific antibody (Biacore Life Sciences, Uppsala, Sweden).
The ranking of the antagonists was performed in order to obtain qualitative information on the binding strength of twenty indole antagonists. For the ranking, SPR signals were recorded at a single concentration (0.05 μM) and divided by the molecular weight of the compounds. The result obtained was normalized to the response obtained with an internal standard (63) in order to avoid problems related to the measurement on different chips with different surfaces. DMSO calibration and double referencing were applied to correct bulk effects and other systematic artifacts (subtraction of reference surface and blank injection).

Row | Compound | Kd
1 | C[C@@H]1O[C@@H](O[C@@H]2[C@@H](C)C[C@@H](C(=O)NCc3cn(CCn4ccc5cc([N+](=O)[O-])ccc54)nn3)C[C@H]2O[C@@H]2O[C@H](CO)[C@H](O)[C@H](O[C@@H](CC3CCCCC3)C(=O)O)[C@H]2OC(=O)c2ccccc2)[C@@H](O)[C@H](O)[C@@H]1O [Product 57, (1R,3R,4R,5S)-3-[2-O-Benzoyl-3-O-((1S)-1-carboxy-2-cyclohexyl-ethyl)-(β-D-galactopyranosyl)oxy]-4-[(α-L-fucopyranosyl)oxy]-5-methyl-N-({1-[2-(5-nitro-1H-indol-1-yl)ethyl]-1H-1,2,3-triazol-4-yl}methyl)cyclohexanecarboxamide] | > 89 nM
2 | C[C@@H]1O[C@@H](O[C@@H]2[C@@H](C)C[C@@H](C(=O)NCc3cn(CCCCn4ccc5cc([N+](=O)[O-])ccc54)nn3)C[C@H]2O[C@@H]2O[C@H](CO)[C@H](O)[C@H](O[C@@H](CC3CCCCC3)C(=O)O)[C@H]2OC(=O)c2ccccc2)[C@@H](O)[C@H](O)[C@@H]1O [Product 59, (1R,3R,4R,5S)-3-[2-O-Benzoyl-3-O-((1S)-1-carboxy-2-cyclohexyl-ethyl)-(β-D-galactopyranosyl)oxy]-4-[(α-L-fucopyranosyl)oxy]-5-methyl-N-({1-[4-(5-nitro-1H-indol-1-yl)butyl]-1H-1,2,3-triazol-4-yl}methyl)cyclohexanecarboxamide] | > 89 nM
3 | C[C@@H]1O[C@@H](O[C@@H]2[C@@H](C)C[C@@H](C(=O)NCCc3cn(CCn4ccc5cc([N+](=O)[O-])ccc54)nn3)C[C@H]2O[C@@H]2O[C@H](CO)[C@H](O)[C@H](O[C@@H](CC3CCCCC3)C(=O)O)[C@H]2OC(=O)c2ccccc2)[C@@H](O)[C@H](O)[C@@H]1O [Product 61, (1R,3R,4R,5S)-3-[2-O-Benzoyl-3-O-((1S)-1-carboxy-2-cyclohexyl-ethyl)-(β-D-galactopyranosyl)oxy]-4-[(α-L-fucopyranosyl)oxy]-5-methyl-N-(2-{1-[2-(5-nitro-1H-indol-1-yl)ethyl]-1H-1,2,3-triazol-4-yl}ethyl)cyclohexanecarboxamide] | > 89 nM
4 | C[C@@H]1O[C@@H](O[C@@H]2[C@@H](C)C[C@@H](C(=O)NCCc3cn(CCCn4ccc5cc([N+](=O)[O-])ccc54)nn3)C[C@H]2O[C@@H]2O[C@H](CO)[C@H](O)[C@H](O[C@@H](CC3CCCCC3)C(=O)O)[C@H]2OC(=O)c2ccccc2)[C@@H](O)[C@H](O)[C@@H]1O [Product 62, (1R,3R,4R,5S)-3-[2-O-Benzoyl-3-O-((1S)-1-carboxy-2-cyclohexyl-ethyl)-(β-D-galactopyranosyl)oxy]-4-[(α-L-fucopyranosyl)oxy]-5-methyl-N-(2-{1-[3-(5-nitro-1H-indol-1-yl)propyl]-1H-1,2,3-triazol-4-yl}ethyl)cyclohexanecarboxamide] | > 89 nM
5 | C[C@@H]1O[C@@H](O[C@@H]2[C@@H](C)C[C@@H](C(=O)NCCCc3cn(CCn4ccc5cc([N+](=O)[O-])ccc54)nn3)C[C@H]2O[C@@H]2O[C@H](CO)[C@H](O)[C@H](O[C@@H](CC3CCCCC3)C(=O)O)[C@H]2OC(=O)c2ccccc2)[C@@H](O)[C@H](O)[C@@H]1O [Product 65, (1R,3R,4R,5S)-3-[2-O-Benzoyl-3-O-((1S)-1-carboxy-2-cyclohexyl-ethyl)-(β-D-galactopyranosyl)oxy]-4-[(α-L-fucopyranosyl)oxy]-5-methyl-N-(3-{1-[2-(5-nitro-1H-indol-1-yl)ethyl]-1H-1,2,3-triazol-4-yl}propyl)cyclohexanecarboxamide] | > 89 nM
6 | C[C@@H]1O[C@@H](O[C@@H]2[C@@H](C)C[C@@H](C(=O)NCCCc3cn(CCCCn4ccc5cc([N+](=O)[O-])ccc54)nn3)C[C@H]2O[C@@H]2O[C@H](CO)[C@H](O)[C@H](O[C@@H](CC3CCCCC3)C(=O)O)[C@H]2OC(=O)c2ccccc2)[C@@H](O)[C@H](O)[C@@H]1O [Product 67, (1R,3R,4R,5S)-3-[2-O-Benzoyl-3-O-((1S)-1-carboxy-2-cyclohexyl-ethyl)-(β-D-galactopyranosyl)oxy]-4-[(α-L-fucopyranosyl)oxy]-5-methyl-N-(3-{1-[4-(5-nitro-1H-indol-1-yl)butyl]-1H-1,2,3-triazol-4-yl}propyl)cyclohexanecarboxamide] | > 89 nM
7 | C[C@@H]1O[C@@H](O[C@@H]2[C@@H](C)C[C@@H](C(=O)NCCCc3cn(CCCn4ccc5cc(N)ccc54)nn3)C[C@H]2O[C@@H]2O[C@H](CO)[C@H](O)[C@H](O[C@@H](CC3CCCCC3)C(=O)O)[C@H]2OC(=O)c2ccccc2)[C@@H](O)[C@H](O)[C@@H]1O [Product 76, (1R,3R,4R,5S)—N-(3-{1-[3-(5-Amino-1H-indol-1-yl)propyl]-1H-1,2,3-triazol-4-yl}propyl)-3-[2-O-benzoyl-3-O-((1S)-1-carboxy-2-cyclohexyl-ethyl)-(β-D-galactopyranosyl)oxy]-4-[(α-L-fucopyranosyl)oxy]-5-methylcyclohexanecarboxamide] | > 89 nM
8 | CC(=O)Nc1ccc2c(ccn2CCCn2cc(CCCNC(=O)[C@@H]3C[C@H](C)[C@@H](O[C@@H]4O[C@@H](C)[C@@H](O)[C@@H](O)[C@@H]4O)[C@H](O[C@@H]4O[C@H](CO)[C@H](O)[C@H](O[C@@H](CC5CCCCC5)C(=O)O)[C@H]4OC(=O)c4ccccc4)C3)nn2)c1 [Product 77, (1R,3R,4R,5S)—N-(3-{1-[3-(5-Acetamido-1H-indol-1-yl)propyl]-1H-1,2,3-triazol-4-yl}propyl)-3-[2-O-benzoyl-3-O-((1S)-1-carboxy-2-cyclohexyl-ethyl)-(β-D-galactopyranosyl)oxy]-4-[(α-L-fucopyranosyl)oxy]-5-methylcyclohexanecarboxamide] | > 89 nM
9 | C[C@@H]1O[C@@H](O[C@@H]2[C@@H](C)C[C@@H](C(=O)NCCCc3cn(CCCn4ccc5cc(NC(=O)COCCOCCN)ccc54)nn3)C[C@H]2O[C@@H]2O[C@H](CO)[C@H](O)[C@H](O[C@@H](CC3CCCCC3)C(=O)O)[C@H]2OC(=O)c2ccccc2)[C@@H](O)[C@H](O)[C@@H]1O [Product 78, (1R,3R,4R,5S)—N-(3-{1-[3-(5-{2-[2-(2-Aminoethoxy)ethoxy]acetamido}-1H-indol-1-yl)propyl]-1H-1,2,3-triazol-4-yl}propyl)-3-[2-O-benzoyl-3-O-((1S)-1-carboxy-2-cyclohexyl-ethyl)-(β-D-galactopyranosyl)oxy]-4-[(α-L-fucopyranosyl)oxy]-5-methylcyclohexanecarboxamide] | > 89 nM

These compounds were tested against T1, E-selectin/IgG construct (assay: BIAcore surface plasmon resonance (SPR)-based assay, serial dilutions of the ligand (absolute KD)). Settings: twofold serial dilutions, 600 s association/600 s dissociation, HBS-P + 20 mm calcium + DMSO 5% v/v, read-out: KD values (absolute binding affinities).
Method: as §1
Evaluation of E-Selectin Antagonists with Surface Plasmon Resonance (SPR)-Based Assay
Ten twofold serial dilutions of the ligand were non-randomly injected. The E-selectin antagonists were diluted in running buffer (HBS-P supplemented with […] calcium and DMSO 5% v/v). Antagonist dilutions were injected with a 600 s association time and 600 s dissociation time at a flow rate of 20 μL/min over the reference and the active flow cell. […] In addition, to prevent the presence of residual traces of compound, a blank injection was performed between each injection of ligand dilution. DMSO calibration and double referencing were applied to correct bulk effects and other systematic artifacts (subtraction of reference surface and blank injection).

Row | Compound | Kd
10 | C[C@@H]1O[C@@H](O[C@@H]2[C@@H](C)C[C@@H](C(=O)NCc3cn(CCCn4ccc5cc([N+](=O)[O-])ccc54)nn3)C[C@H]2O[C@@H]2O[C@H](CO)[C@H](O)[C@H](O[C@@H](CC3CCCCC3)C(=O)O)[C@H]2OC(=O)c2ccccc2)[C@@H](O)[C@H](O)[C@@H]1O [Product 58, (1R,3R,4R,5S)-3-[2-O-Benzoyl-3-O-((1S)-1-carboxy-2-cyclohexyl-ethyl)-(β-D-galactopyranosyl)oxy]-4-[(α-L-fucopyranosyl)oxy]-5-methyl-N-({1-[3-(5-nitro-1H-indol-1-yl)propyl]-1H-1,2,3-triazol-4-yl}methyl)cyclohexanecarboxamide] | 57 nM
11 | C[C@@H]1O[C@@H](O[C@@H]2[C@@H](C)C[C@@H](C(=O)NCCc3cn(CCCCn4ccc5cc([N+](=O)[O-])ccc54)nn3)C[C@H]2O[C@@H]2O[C@H](CO)[C@H](O)[C@H](O[C@@H](CC3CCCCC3)C(=O)O)[C@H]2OC(=O)c2ccccc2)[C@@H](O)[C@H](O)[C@@H]1O [Product 63, (1R,3R,4R,5S)-3-[2-O-Benzoyl-3-O-((1S)-1-carboxy-2-cyclohexyl-ethyl)-(β-D-galactopyranosyl)oxy]-4-[(α-L-fucopyranosyl)oxy]-5-methyl-N-(2-{1-[4-(5-nitro-1H-indol-1-yl)butyl]-1H-1,2,3-triazol-4-yl}ethyl)cyclohexanecarboxamide] | 49 nM
12 | C[C@@H]1O[C@@H](O[C@@H]2[C@@H](C)C[C@@H](C(=O)NCCCc3cn(CCCn4ccc5cc([N+](=O)[O-])ccc54)nn3)C[C@H]2O[C@@H]2O[C@H](CO)[C@H](O)[C@H](O[C@@H](CC3CCCCC3)C(=O)O)[C@H]2OC(=O)c2ccccc2)[C@@H](O)[C@H](O)[C@@H]1O [Product 66, (1R,3R,4R,5S)-3-[2-O-Benzoyl-3-O-((1S)-1-carboxy-2-cyclohexyl-ethyl)-(β-D-galactopyranosyl)oxy]-4-[(α-L-fucopyranosyl)oxy]-5-methyl-N-(3-{1-[3-(5-nitro-1H-indol-1-yl)propyl]-1H-1,2,3-triazol-4-yl}propyl)cyclohexanecarboxamide] | 30 nM
